# How the values were obtained:
# Type in all cases: cell-based
# [1] = tested on: T cells; assay: T cell expansion with cytokines after TCR stimulation (cell surface staining)
# Method: Previously frozen T cells were thawed and contacted with αCD3/αCD28 dynal beads (cell to bead ratio of 1 to 3) in the presence of indicated cytokines at day 0. From day 3, twice more T cell growth media (RPMI1640, 10% FBS, 2 mM L-glutamin, 100 µM non-essential amino acids, 1 mM sodium pyruvate, 10 mM Hepes, 55 µM β-mercaptoethanol, 10% FBS, and 100 U/ml of penicillin-streptomycin) was added to the plate with indicated cytokines (without cytokine, rhIL2 (50 IU/ml, Novartis), IL6 (10 ng/ml, R&D systems), IL7 (10 ng/ml, Peprotech), IL15 (10 ng/ml, Peprotech), and IL21 (10 ng/ml, Peprotech)) at day 3, 5, 6, 9, 12, 15, and 18.
# Cells were harvested at indicated time points and then stained with live/dead dye (eFluro780, eBioscience), CD3 (BioLegend, clone#: OKT3), CD4 (BioLegend, clone#: OKT4), CD8 (BD Bioscience, clone#: RPA-T8), CD45RO (BioLegend, clone#: UCHL1), CCR7 (BioLegend, clone#: G043H7), CD27 (BD Horizon, clone#: L128), CD127 (BioLegend, clone#: A019D5), CD57 (BioLegend, clone#: HCD57), CD126 (BioLegend, clon#: UV4), and CD130 (R&D Systems, clone#: 28126) antibodies. The cells were acquired by FACS Fortessa and then FlowJo program was used for data analysis.
# [2] = tested on: T cells; assay: ARM-BCMA CAR expression kinetics in vitro with or without AZT (FACS); settings: 30 µM and 100 µM doses
# Method: In contrast to TM which measures lentiviral integration of the CAR transgene after 8-9 days, in the ARM process, the lentiviral transgene may not be fully integrated and truly expressed within 24h post lentiviral addition, as lentiviral pseudotransduction could occur (Haas DL, et al., (2000) Mol Ther; 2(1):71-80; Galla M, et al., (2004) Mol Cell; 16(2):309-15). […] Flow cytometry (FACS) analyses were performed to detect CAR surface expression at 24 h, 48 h, 72 h, 96 h and 168 h post T cell activation and transduction with the lentiviral vector. In some cases, ARM-BCMA CAR and an aliquot of this product were frozen down immediately upon harvest for additional characterization in other assays.
# [3] = tested on: T cells; assay: Cytokine process: T cell differentiation status and CAR transduction by flow cytometry; settings: purified T cells incubated with cytokine, no other activation stimulus
# Method: The cells were immunophenotyped for T cell differentiation status and transduction of the CAR was assessed using flow cytometry. The cells were washed, viability dye was added followed by the antibody cocktail (Table 20), and the plates were incubated for 20 minutes at room temperature. After the incubation, the cells were washed twice and fixed prior to being analyzed on the BD fortessa.
compound,measurement,setting,value
IL15: cytokine present during activation of T cells with αCD3αCD28 beads,expansion of IL6Rβ expressing cells,[1]; αCD3/αCD28 beads plus cytokine,enhanced expansion of IL6Rβ expressing cells
same,T cell expansion,[1]; αCD3/αCD28 beads plus indicated cytokine,"enhanced T cell expansion, with IL15 showing the greatest enhancement"
"Cc1cn([C@H]2C[C@H](N=[N+]=[N-])[C@@H](CO)O2)c(=O)[nH]c1=O [AZT, 3′-azido-3′-deoxythymidine]",inhibition of CAR expression,[2],effectively inhibit CAR expression
IL-15: cytokine used in T cell culture,maintenance of self-renewing T cells (CD45RO-CCR7+),[3],maintained self-renewing T cells in vitro

# — US20230256017A1, “METHODS OF MAKING CHIMERIC ANTIGEN RECEPTOR-EXPRESSING CELLS” (Novartis AG, priority 2020, published 2023)
